Source: patent US20050233413A1, “Neuroprotective polypeptides and methods of use” (priority 2002, published 2005)
Like-named read-outs stand apart in the source and are kept apart here. Where no end group is shown, it is not given here. [ ]: non-standard residue; d: D form. pS = N[C@@H](COP(=O)(O)O)C(=O)O

Legend:
Assay type in all cases: cell-based
[1] = system: F11 cells transfected with V642I-APP cDNA; experiment: F11 cell death by V642I-APP transfection (Trypan blue exclusion); settings: for cytotoxicity by V642I-APP in the presence of peptide (% dead cells of total cells): each peptide 10 μM, V642I-APP alone 53.7±1.2%, without transfection 9.0±1.4; for % dead cells of total cells: 72 hr after transfection
Source text: (§1) In one assay, transfection with V642I-APP causes cell death in F11 neuronal hybrid cells. In the other, treatment with Aβ peptides causes cell death in primary cultured cortical neurons.
(§2) F11 cells, the hybrid of a rat embryonic-day-13 primary cultured primary neuron and a mouse neuroblastoma cell, are one of the best models for primary cultured neurons as they carry representative characteristics of primary neurons, such as generation of action potentials without differentiation by NGF [22]. They have been used in various studies of is neuronal functions. Using these cells, the underlying mechanisms for cytotoxicity by V642I-APP have well been analyzed. Cytotoxicity by V642 mutants of APP has also been confirmed in multiple different systems. F11 cells were grown in Ham's F-12 (GibcoBRL, Gaithersburg, Md.) plus 18% fetal bovine serum (FBS; Hyclone, Logan, Utah) and antibiotics, as described previously. F11 cells (7×10^4 cell/well in a 6-well plate cultured in Ham's F-12 plus 18% FBS for 12-16 hr) were transfected with plasmids encoding FAD genes by lipofection [FAD cDNA 2 μg, LipofectAMINE 4 μl, PLUS reagent 8 μl (GibcoBRL)] in the absence of serum for 3 hr, and were incubated with Ham's F-12 plus 18% FBS for 2 hr. Then, culture media were changed to Ham's F-12 plus 10% FBS with or without HN peptides, and cells were cultured for an additional 67 hr. Seventy-two hr after transfection, cell mortality was measured by Trypan blue exclusion assay, performed as follows. Cells were suspended by pipetting gently, and 50 μl of 0.4% (finally 0.08%) Trypan blue solution (Sigma, St Louis, Mo.) was mixed with 200 μl of the cell suspension at room temperature. Stained cells were counted within 3 min after the mixture with Trypan blue solution.

[2] = system: Aβ and V642I-APP
Source text: as §2
(§3) The primary culture of mouse cortical neurons was performed in poly-L-lysine-coated 24-well plates or 96-well plates (Sumitomo Bakelite, Akita, Japan), in the absence of serum and the presence of N2 supplement, as described previously. The purity of neurons by this method was >98%. Prepared neurons (for neurons seeded in 96-well plates: 2.5×10^4 or 5×10^4 cells/well, 100 μl culture medium/well; for neurons seeded in 24-well plates: 1.25×10^5 cells/well, 250 μl culture medium/well) were preincubated with or without 10 μM (in case for the experiment with 10 μM HN) synthetic HN for 16 hr, and treated with 25 μM Aβ in the presence or absence of 10 μM HN for 72 hr, respectively. As primary neurons were vulnerable to transient dryness during medium exchange, we treated neurons with 25 μM Aβ as follows. First, a half volume (50 μl for neurons in 96-well plates; 125 μl for neurons in 24-well plates) of old medium was discarded. Then, the same volume (50 μl for neurons in 96-well plates; 125 μl for neurons in 24-well plates) of prewarned fresh medium containing 10 μM HN and 50 μM Aβ (Aβ was directly resolved) was added to the culture. The Aβ peptides used at 25 μM to induce neurotoxicity formed aggregation in the medium during the cell culture at 37° C. for 72 hr. as described. The WST-8 cell viability assay was performed, using Cell Counting Kit-8 (Wako Pure Chemical Industries, Osaka, Japan), as described previously.
(§4) Calcein assay was performed with Calcein-AM {3′,6′-di-(O-acetyl)-2′,7′-bis [N,N-bis(carboxymethyl)aminomethyl] fluorescein, tetraacetoxymethyl ester; Dojindo}, as described previously. These assays were simultaneously performed in the experiments with neurons seeded in 96-well plates, as follows. Seventy-two hours after Aβ treatment, cells were added with the mixture of 10 μl WST-8 solution and 1 μl of 600 μM Calcein-AM. After 2 hr incubation in a CO2 incubator at 37° C., WST-8 absorbance was measured as OD450. After exchanging the medium to PBS to lower the background, Calcein-specific fluorescence (ex=485 nm, em=535 nm) was observed by fluorescence microscopy or measured by a spectrofluorometer (Wallac1420 ARVOsx Multi Label Counter). […]

[3] = system: primary cultured neurons treated with 25 μM Aβ1-43; settings: for Calcein fluorescence, percentage of neurons without treatment: 72 hours, means±S.D.
Protocol: as §1, §3
Calcein assay was performed with Calcein-AM {3′,6′-di-(O-acetyl)-2′,7′-bis [N,N-bis(carboxymethyl)aminomethyl] fluorescein, tetraacetoxymethyl ester; Dojindo}, as described previously. These assays were simultaneously performed in the experiments with neurons seeded in 96-well plates, as follows. Seventy-two hours after Aβ treatment, cells were added with the mixture of 10 μl WST-8 solution and 1 μl of 600 μM Calcein-AM. After 2 hr incubation in a CO2 incubator at 37° C., WST-8 absorbance was measured as OD450. After exchanging the medium to PBS to lower the background, Calcein-specific fluorescence (ex=485 nm, em=535 nm) was observed by fluorescence microscopy or measured by a spectrofluorometer (Wallac1420 ARVOsx Multi Label Counter). Most cell viability data using Calcein assay and WST-8 assay were obtained from neurons seeded at 5×10^4 cells/well in 96-well plates (high-density neurons) and confirmed by both assays with the cells seeded at 2.5×10^4 cells/well (low-density neurons).
Some experiments for Calcein assay were performed with neurons seeded in 24-well plates. […] In most experiments using primary neurons, four independent experiments were performed and the means? S. D. of the results were discussed.

[4] = system: Aβ and four FAD genes (V642I-APP, NL-APP, M146L-PS1, and N141I-PS2); settings: Table 5, marked *
Source text: as §2, §3, §4

For `CC[C@H](C)[C@H](NC(=O)[C@H](CCC(=O)O)NC(=O)[C@H](CO)NC(=O)[C@@H](NC(=O)[C@H](CC(C)C)NC(=O)[C@H](CC(C)C)NC(=O)[C@H](CC(C)C)NC(=O)[C@H](CC(C)C)NC(=O)[C@H](CS)NC(=O)[C@H](CO)NC(=O)[C@H](Cc1ccccc1)NC(=O)CNC(=O)[C@H](CCCNC(=N)N)NC(=O)[C@@H]1CCCN1C(=O)[C@H](C)NC(=O)[C@@H](N)CCSC)[C@@H](C)O)C(=O)N[C@@H](CC(=O)O)C(=O)N[C@@H](CC(C)C)C(=O)N1CCC[C@H]1C(=O)N[C@H](C(=O)N[C@@H](CCCCN)C(=O)N[C@@H](CCCNC(=N)N)C(=O)N[C@@H](CCCNC(=N)N)C(=O)N[C@@H](C)C(=O)O)C(C)C` [HN, reference compound], the “cytotoxicity by V642I-APP in the presence of peptide (% dead cells of total cells)” value (shortened to “cytotoxicity … (% dead cells of total cells)”) [1] was 11.0±0.1%.

“(S14P)HN: HN derivative with Pro substitution at Ser14” was tested, and the “cytotoxicity … (% dead cells of total cells)” value [1] was 12.5±1.0%.

“EFLIVIKSMAPRGFSALLLLTSEIDLPVKRRA [EF-HNA]” was tested, and the Full protection ([2]; Table 5, marked **) was “NE** (the corresponding peptide had no cytoprotective effect at 10 μM)” and the IC50 ([2]; Table 5, marked **) was greater than 10 µM.

With “EFLIVIKSMAPRGFSCLLLLTGEIDLPVKKKK [EF-HNG-KKK]” the IC50 [3] was roughly 1 nM, the “concentration of full neuroprotection against Aβ1-43” value ([3]; 25 μM Aβ1-43) was 10 to 100 nM and the “suppression of Aβ neurotoxicity in the presence of 100 μM EFLIVIKS” value ([3]; 25 μM Aβ1-43, EF-HN and EF-HNG at 10 μM, WST-8 and Calcein assays) was “could not suppress Aβ neurotoxicity at all”. For the same molecule, the IC50 [1] was roughly 0.1 nM, the “concentration of full cytoprotection / complete suppression against V642I-APP” value ([1]; F11 cells) was 10 nM and the “Full protection (minimal concentration that exerted full cytoprotection)” value ([2]; Table 5, marked **) was “˜10 nM”. The “potency relative to EF-HNG” value ([2]; times less potent than EF-HNG) was roughly 10 times.

For “MAPRGF(D-Ser)CLLLLTSEIDLPVKRRA [D-Ser7 HN]”, the “Full protection (minimal concentration that exerted full cytoprotection)” value [4] was “˜10 μM”.

In the case of “MAPRGF(p-S)CLLLLTSEIDLPVKRRA (MAPRGF[pS]CLLLLTSEIDLPVKRRA) [P-S7 HN]”, the “Calcein fluorescence, percentage of neurons without treatment” value ([3]; 25 μM Aβ1-43 + 10 pM peptide, Aβ alone 8.9 ± 0.8) is reported as 9.0 ± 0.9%, the “Calcein fluorescence, percentage of neurons without treatment” value ([3]; 25 μM Aβ1-43 + 100 pM peptide) is reported as 8.7 ± 0.8% and the “Calcein fluorescence, percentage of neurons without treatment” value ([3]; 25 μM Aβ1-43 + 1 nM peptide) is reported as 8.8 ± 0.9%. For the same molecule, the “Calcein fluorescence, percentage of neurons without treatment” value ([3]; 25 μM Aβ1-43 + 10 nM peptide) was 8.8 ± 0.6%, the “Calcein fluorescence, percentage of neurons without treatment” value ([3]; 25 μM Aβ1-43 + 100 nM peptide) was 10.5 ± 0.9% and the “Calcein fluorescence, percentage of neurons without treatment” value ([3]; 25 μM Aβ1-43 + 1 μM peptide) was 84.2 ± 6.8 %. For the same molecule, the “Calcein fluorescence, percentage of neurons without treatment” value ([3]; 25 μM Aβ1-43 + 10 μM peptide) was 103.3 ± 2.8 %, the “% dead cells of total cells” value ([1]; V642I-APP + 10 pM peptide, means±S.D., V642I-APP alone 52.9 ± 1.1) was 53.7 ± 0.8% and the “% dead cells of total cells” value ([1]; V642I-APP + 100 pM peptide) was 53.1 ± 1.7%. For the same molecule, the “% dead cells of total cells” value ([1]; V642I-APP + 1 nM peptide) was 54.8 ± 1.6%, the “% dead cells of total cells” value ([1]; V642I-APP + 10 nM peptide) was 54.1 ± 1.4% and the “% dead cells of total cells” value ([1]; V642I-APP + 10 μM peptide) was 11.6 ± 1.1 %. The “Full protection (minimal concentration that exerted full cytoprotection)” value [4] was “˜10 μM”.

“MAPRGFSALLLLTSEIDLPVKRRA [HNA, reference compound]” was tested, and the “neuroprotective action against Aβ1-43 (in words)” value ([3]; 25 μM Aβ1-43, primary neurons) was “completely inactive”, the “cytoprotective action against V642I-APP (in words)” value ([1]; F11 cells) was “completely inactive” and the Full protection [4] was “NE* (the corresponding peptide had no cytoprotective effect at 10 μM)”. For the same molecule, the IC50 ([4]; read-out: IC50) was greater than 10 µM.

With MAPRGFSCLLLLTEEIDLPVKRRA [(S14E)HN] the “cytotoxicity … (% dead cells of total cells)” value [1] was 45.0±1.9%.

For MAPRGFSCLLLLTREIDLPVKRRA [(S14R)HN], the “cytotoxicity … (% dead cells of total cells)” value [1] was 52.6±1.0%.

In the case of MAPRGFSCLLLLTTEIDLPVKRRA [(S14T)HN], the “cytotoxicity … (% dead cells of total cells)” value [1] is reported as 54.0±2.3%.

In the case of MAPRGFSCLLLLTWEIDLPVKRRA [(S14W)HN], the “cytotoxicity … (% dead cells of total cells)” value [1] is reported as 54.5±4.2%.

“PRGFACLLLLTGEIDLP [S7A HNG17, PRGFACLLLLTGEIDLP]” was tested, and the IC50 [3] was roughly 1 nM, the “concentration of full neuroprotection against Aβ1-43” value ([3]; 25 μM Aβ1-43) was “about 10 nM” and the “Full protection (minimal concentration that exerted full cytoprotection)” value ([2]; Table 5, marked **) was “˜10 nM”.
